From patent US8877889B2, “Tumor cell-killing peptides” (Industry-Academic Cooperation Foundation, Chosun University, priority 2009, dated 2014)
Entries after “also recorded” stand apart in the source; their conditions may differ.

Legend:
[1] = system: HeLa cells; test: Cell death assayed by cell counting kit-8, with or without caspase inhibitor pre-treatment; format: cell-based; details: 5 μM peptide for 5 hours (FIG. 2C)
Procedure: (C) HeLa cells were pre-treated with zVAD-fmk (25 μM) or IDN-6556 (25 μM) 1 hour before MTD-peptide treatment. After treatment of 5 μM of R8, ΔR8-MTD, and R8:MTD peptides for 5 hours, cell death was assayed by cell counting kit-8 (Dojindo Molecular Technologies, Rockville, USA).

[2] = system: NCI-H460 cells; test: Peptide-induced cell death in NCI-H460 cells; format: cell-based; details: 5 μM, 2 or 5 hours (FIG. 3C)
Procedure: (C) NCI-H460 cells were treated with indicated peptides for 2 hours or 5 hours. % cell death was determined as described above.

[3] = system: Isolated mouse liver mitochondria; test: Isolated mitochondria treated with peptide, transmission electron microscopy; details: 10 μM peptide; 1 hour at 30° C.
Procedure: (D) Isolated mouse liver mitochondria were treated with buffer (NT), MTD peptide (10 μM), or MTDmt5 peptide (10 μM), and then incubated for 1 hour at 30° C. Mitochondria were harvested by centrifugation (10,000×rpm) and then processed for transmission electron microscopy. Images (upper panel) were obtained with 7,000× magnification, and the relative mitochondrial sizes (lower panel) were calculated by measuring the diameters of about 40 individual mitochondria.
(§1) Jurkat cells or isolated mitochondria treated with MTD peptides were harvested by centrifugation and fixed with 2.5% glutaraldehyde for 2 hours followed by washing with 0.2 M sodium cacodylate buffer (pH 7.2) three times for 10-20 minutes. Fixation step was repeated overnight and washed with 0.2 M sodium cacodylate buffer three times. Samples were dehydrated with following sequential solutions 60% ethanol, 70% ethanol, 80% ethanol, 90% ethanol, 95% ethanol, and 100% ethanol twice for 20 minutes at 4° C., and then infiltrated by propylene oxide three times for 20 minutes. Samples were embedded with the mixture of propylene oxide and epon for 6 hours. Electron microscopic images were obtained using the Hitachi H-7600 electron microscope (80 kV, Hitachi, Tokyo, Japan). Mitochondria were isolated from mouse liver as previously described (1).

[4] = system: HeLa cells; test: Measurement of intracellular calcium with Fluo-4-AM; format: cell-based; details: 3 μM peptide
Procedure: (A-C) HeLa cells were loaded with 3 μM Fluo-4-AM for 30 minutes and then treated with 3 μM of indicated peptides (A: MTD, B: MTDmt3, C: MTDmt5). Fluorescence images and bright-field images were obtained with the laser scanning confocal microscope at 5-second intervals for 5 minutes. Relative fluorescence intensities (F/F0) at two region-of-interests (ROI 1 and 2) were measured at 5-second intervals for 5 minutes.
(E-G) HeLa cells were pretreated in calcium free KRB media alone (E), in KRB media with 10 μM 2-APB and 20 μM Ryanodine (F), or in KRB media with freshly made 30 μM CsA (G) for 2 hours. HeLa cells were then loaded with 3 μM Fluo-4-AM for 30 minutes and treated with 3 μM of MTD peptide. Images were obtained with the laser scanning confocal microscope at 5-second intervals for 5 minutes. Relative fluorescence intensities (F/F0) at two region-of-interests (ROI 1 and 2) were measured at 5-second intervals for 5 minutes.
For Ca^2+ measurements in the cytosol, HeLa cells were cultured in an Lab-Tek™ Chamber glass slide and loaded with Fluo-4-AM (Fluo-4-acetoxymethyl ester) at a final concentration of 3 μM for 30 minutes, followed by washing with PBS (Phosphate buffered saline) at pH 7.4 and the addition of fresh Ca^2+-free Krebs-ringer modified buffer (KRB: 125 mM NaCl, 5 mM KCl, 1 mM Na3PO4, 1 mM MgSO4, 5.5 mM glucose, and 20 mM HEPES, pH 7.4, at 37° C.) containing the indicated peptides. Time-lapse images were obtained at 488 nm excitation with the Argon laser scanning confocal microscope (Leica TCS SP5 Microsystems, Mannheim, Germany) at 10-second intervals for 5 minutes to visualize Fluo-4-AM.

[5] = system: HeLa cells; test: Caspase activation, western blot of cell lysates; format: cell-based; details: 5 μM peptide
Procedure: (E) After treatment with the MTD peptide, MTDmt4, or MTDmt5 (5 μM) in HeLa cells, cell lysates were prepared at indicated times. Equal amounts of proteins were subjected to the SDS-PAGE and blotted onto PVDF membrane. After blocked with 5% nonfat milk in TBST (10 mM Tris-HCl, pH 7.5, 100 mM NaCl and 0.1% Tween-20), the membrane was probed with anti-caspase-3 (SantaCruz Biotechnology, Inc., Santa Cruz, Calif., USA), anti-caspase-8 (Cell signaling technology, Beverly, Mass., USA), anti-caspase-9 (SantaCruz Biotechnology, Inc., Santa Cruz, Calif.), anti-XIAP (Upstate Biotechnology, Dundee, United Kingdom), or anti-Bid (home-made) antibodies. Anti-actin antibody (Chemicon International, Inc., Temecula, Calif., USA) was used as equal loading control.

[6] = system: HeLa cells; test: Peptide-induced cell death, counting dead and survived cells under the light microscope; format: cell-based; details: peptides 10 μM, 20 μM, 30 μM, 10 minutes after treatment (FIG. 1B, 3A)
Procedure: (B) HeLa cells were treated with DMSO or the indicated peptides in increasing doses (10 μM, 20 μM, and 30 μM). % of cell death was determined at 10 minutes after treatment by counting the dead cells and survived cells under the light microscope.
(E) HeLa cells were transfected with substitution mutants of MTD peptide.
HeLa cells were treated with DMSO or with the indicated peptides at increasing doses (10 μM, 20 μM, or 30 μM). % cell death was determined 10 minutes after treatment by counting the dead cells and survived cells (300 cells per sample) under the light microscope.
(D) HeLa cells were treated with indicated amounts of MTD peptide for 1 hour, 2 hours, or 5 hours. % cell death was calculated by counting the dead cells and survived cells (200 to 500 cells per sample) under the light microscope. Data represent the means±SD of three independent experiments.

[7] = system: A549 cells; test: Peptide-induced cell death in A549 cells; format: cell-based; details: 5 μM, 1, 2 or 5 hours (FIG. 3D)
Procedure: (D) A549 cells were treated with indicated peptides for 1, 2, or 5 hours. % cell death was determined as described above.

[8] = system: Jurkat cells; test: Transmission electron microscopy of peptide-treated cells; format: cell-based; details: 10 μM for 10 minutes
Procedure: (§2) (A) HeLa cells were treated with MTD peptides (10 μM), or TRAIL (100 ng/ml). Images were taken at the indicated times (upper panel). Jurkat cells were treated with MTD peptide (10 μM) for 10 minutes, cells were processed for TEM. Images were obtained with 4,000× magnification (lower panel). N: nucleus, M: mitochondrion.
as §1

[9] = system: HeLa cells; test: Cytochrome c release by immunofluorescence; format: cell-based; details: HeLa cells; MTD peptide 5 μM
Procedure: (B) Plasmids (control vector or Noxa WT fused to GFP) were transfected into HeLa cells. After 2 days in the presence of zVAD-fmk, cytochrome c was stained with anti-cytochrome c antibody. Arrows indicate the diffused cytochrome c staining (upper panel). The release of cytochrome c was analyzed by immunofluorescence in HeLa cells after treatment with MTD peptides (5 μM) (lower panel).

[10] = system: HeLa cells; test: HMGB1 release into the media, western blot; format: cell-based; details: 10 μM, 10 to 30 minutes, serum-free medium
Procedure: (C) HeLa cells were treated with DMSO or MTD peptides (10 μM) for 10 minutes or 30 minutes in the serum-free culture medium. After treatment, culture mediums were collected. Proteins in the conditioned media were precipitated by 2.5 vol. of methanol and 0.1 vol. of 5M NaCl. Precipitates and cell lysates were subjected to SDS-PAGE and western blot analysis with anti-HMGB1 antibody (R&D systems, Minneapolis, Minn.).

[11] = system: mPT pore; test: Cobalt-quenched calcein assay; format: cell-based; details: HeLa cells; within 5 minutes after treatment
Procedure: (A) HeLa cells were loaded with 1 μM Calcein-AM and 2 mM cobalt for 15 minutes, and the mitochondria were stained by adding 25 μM MitoTracker for 2 minutes. The representative image of the calcein signals (green) that were overlapped with MitoTracker (Red) was shown.
(B) Time-lapse images of calcein and MitoTracker signals from HeLa cells that were not treated (top panel) or treated (bottom panel) with MTD peptide were obtained at 10-second intervals for 5 minutes. The representative images at the indicated time points were shown.
HeLa cells were loaded with 1 μM Calcein-AM and 2 mM cobalt in serum-free DMEM for 15 minutes, followed by adding 25 μM MitoTracker for 2 minutes to stain the mitochondria. Then, HeLa cells were briefly washed with HBSS (Hank's Buffered Salt Solution) and were treated with MTD peptide in calcium-free media containing 10% FBS (Fetal bovine serum). Time-lapse images were obtained at 10-second intervals for 10 minutes.

[12] = system: HeLa cells; test: Live cell images and annexin V / SYTOX Green staining of dying cells; format: cell-based
Procedure: as §2
(D) HeLa cells were treated with the MTD (5 μM) peptide with or without the pretreatment of 10 μM BAPTA-AM for 2 hours. Live cell images were serially acquired at 10-second intervals for 10 minutes and shown at the indicated times.
(A) HeLa cells were stained with FITC-conjugated Annexin V antibody at 10 minutes after DMSO or MTD treatment. Images were obtained under the confocal microscope.
(B) HeLa cells were stained with SYTOX Green 10 minutes after DMSO or MTD treatment. Images were obtained using confocal microscope.

| Sequence | cell death [1] | susceptibility of cells to peptide [2] | morphological changes or mitochondrial size changes of isolated mitochondria [3] | cytosolic calcium level change [4] | caspase activation [5] | cell death-inducing activity (% of cell death) [6] | susceptibility of cells to peptide [7] | time to cytosolic calcium increase after treatment [4] | ultrastructural changes by transmission electron microscopy [8] | cytochrome c release from the mitochondria to the cytosol [9] | HMGB1 release to the media [10] | mitochondrial calcein signals (mPT pore opening) [11] | annexin V and SYTOX Green staining ([12]; 10 minutes after treatment) | morphology of dying cells ([12]; MTD peptide 10 μM or TRAIL 100 ng/ml (FIG. 2A, 7A, 7B)) |
| --- | --- | --- | --- | --- | --- | --- | --- | --- | --- | --- | --- | --- | --- | --- |
| KLLNLISKLF [ΔR8:MTD] | could not cause cell death; also recorded: no cell death-inducing activity | – | – | – | – | – | – | – | – | – | – | – | – | – |
| RRRRRRRRGRQKLLNLISKAA (PTD-MTDmt5 fusion peptide derived from Homo sapiens) | – | not | did not show any morphological changes or mitochondrial size changes | did not induce changes in the cytosolic calcium level | not activated | no killing activity; also recorded: completely lost their cell death-inducing activities; also recorded: no cell death | – | – | – | – | – | – | – | – |
| RRRRRRRRGRQKLLNLISKLF [MTD] | – | very susceptible | did not show any morphological changes or mitochondrial size changes; also recorded: no morphological changes | substantially increased | not activated | comparable cell death-inducing activity to NoxaBH3MTD peptide | very resistant | 1 to 3 min | swollen mitochondria, the enlarged nucleus and cell membrane swelling; also recorded: swelled mitochondria | not released; also recorded: neither cytochrome c release | significantly released to the media | significantly decreased | stained with annexin V and SYTOX Green | bubble-like structures of dying cells; also recorded: swollen cytoplasmic membrane |
